Activity calls are given as the source filed them.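 The calls were made as follows: active = inhibition of the phosphatase PP1 of at least 70% at 50 µM; inactive = the rest.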

Usually inhibition stands for the relative decrease from the control value, in per cent.

The target in the experiment is Serine/threonine-protein phosphatase PP1-alpha catalytic subunit (Homo sapiens) (UniProt P62136). The experiment is described as follows: single-dose PP1alpha phosphatase inhibition – biochemical, fluorescence, OMFP substrate, powder samples, set 2, confirmation (AID 652218). Conditions: purified PP1alpha, OMFP dephosphorylation fluorescence; at 50 µM; hits give high values.
Chain of Serine/threonine-protein phosphatase PP1-alpha catalytic subunit (Homo sapiens) (P62136 whole entry, looked up): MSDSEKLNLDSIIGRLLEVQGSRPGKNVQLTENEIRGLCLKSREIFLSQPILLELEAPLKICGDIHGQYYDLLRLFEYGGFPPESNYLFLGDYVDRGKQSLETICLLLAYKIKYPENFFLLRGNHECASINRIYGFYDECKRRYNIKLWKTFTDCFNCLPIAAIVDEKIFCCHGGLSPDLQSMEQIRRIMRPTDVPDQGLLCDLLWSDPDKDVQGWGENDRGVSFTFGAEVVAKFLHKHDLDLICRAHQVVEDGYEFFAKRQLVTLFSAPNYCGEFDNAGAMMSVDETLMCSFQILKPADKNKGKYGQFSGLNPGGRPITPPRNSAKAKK
Regarding `CN1CCN(C(c2ncccn2)c2ccc3cccnc3c2O)CC1` (stereo unspecified), the inhibition was 93.8%.

In the case of `Cc1cccc(C(c2ccc3cccnc3c2O)N2CCN(C)CC2)n1` (stereo unspecified), the inhibition is 103%.

Take `CN1CCN(C(c2nccs2)c2cc(Cl)c3cccnc3c2O)CC1` (stereo unspecified): the inhibition was 103%.

With `COc1cccc(C(c2ccc3cccnc3c2O)N2CCN(C)CC2)n1` (stereo unspecified), the inhibition was 107%.

For `Oc1c(C(NC2CCCCC2)c2ccccn2)ccc2cccnc12` (stereo unspecified), the inhibition is 106%.

As for `CN1CCN(C(c2ccncc2)c2cc(Cl)c3cccnc3c2O)CC1` (stereo unspecified), the inhibition is 45% (inactive).

Take `Oc1c(Cc2ccccn2)ccc2cccnc12`: the inhibition was 102%.

Consider `Oc1c(CN2CCN(c3ccccn3)CC2)cc(Cl)c2cccnc12`, for which the inhibition is 102%.

In the case of `CN1CCN(C(c2ccccn2)c2cc(Cl)ccc2O)CC1` (stereo unspecified), the inhibition was 6.19% (inactive).

In the case of `COc1ccc(C(c2ccc3cccnc3c2O)N2CCN(C)CC2)nc1` (stereo unspecified), the inhibition is 97.9%.

For `CN1CCN(C(c2ccc3cccnc3c2O)c2ncccc2C(F)(F)F)CC1` (stereo unspecified), the inhibition was 102%.

In the case of `CN1CCN(C(c2ccc(C(F)(F)F)cn2)c2ccc3cccnc3c2O)CC1` (stereo unspecified), the inhibition was 99.8%.

For the compound `Oc1c(C(c2ccccn2)N2CCN(c3ccccc3F)CC2)cc(Cl)c2cccnc12` (stereo unspecified), the inhibition is 101%.

With `CN1CCN(C(c2ccccn2)c2cc(Cl)c3ccccc3c2O)CC1` (stereo unspecified), the inhibition is 27.2% (inactive).

For the compound `Cc1cccnc1C(c1ccc2cccnc2c1O)N1CCN(C)CC1` (stereo unspecified), the inhibition is 99.9%.

With `CN1CCN(Cc2cc(Cl)c3cccnc3c2O)CC1`, the inhibition is 73.1%.

As for `Cc1ccc2ccc(C(c3ccccn3)N3CCN(C)CC3)c(O)c2n1` (stereo unspecified), the inhibition was 101%.

Consider `CN1CCN(C(c2ccccn2)c2ccc3cccnc3c2O)CC1` (stereo unspecified), for which the inhibition is 100%.

As for `CN1CCN(C(c2ccccn2)c2cc(Cl)c3cccnc3c2O)CC1` (stereo unspecified), the inhibition is 98.4%.

Regarding `CN1CCN(C(c2cccs2)c2cc(Cl)c3cccnc3c2O)CC1` (stereo unspecified), the inhibition was 88.6%.

For the compound `Oc1c(C(c2ccccn2)N2CCOCC2)cc(Cl)c2cccnc12` (stereo unspecified), the inhibition is 105%.

For the compound `Cc1ccc(C(c2ccc3cccnc3c2O)N2CCN(C)CC2)nc1` (stereo unspecified), the inhibition was 104%.

With `CCOC(c1ccccn1)c1cc(Cl)c2cccnc2c1O` (stereo unspecified), the inhibition is 99%.

In the case of `Oc1c(C(c2ccccn2)N2CCCC2)ccc2cccnc12` (stereo unspecified), the inhibition is 107%.

Take `Oc1c(C(c2ccccn2)N2CCC(Cc3ccccc3)CC2)cc(Cl)c2cccnc12` (stereo unspecified): the inhibition is 89.3%.

Turning to `CN1CCC(NC(c2ccccn2)c2ccc3cccnc3c2O)CC1` (stereo unspecified), the inhibition is 97.3%.

As to `Oc1c(CN2CCN(c3ccccc3)CC2)cc(Cl)c2cccnc12`, the inhibition is 100%.

With `CC(C)(C)OC(=O)N1CCN(C(c2ccccn2)c2cc(Cl)c3cccnc3c2O)CC1` (stereo unspecified), the inhibition was 90.5%.

With `COc1ccnc(C(c2ccc3cccnc3c2O)N2CCN(C)CC2)c1` (stereo unspecified), the inhibition is 104%.

For `COCOc1c(C(c2ccccn2)N2CCN(C)CC2)ccc2cccnc12` (stereo unspecified), the inhibition was 66.1% (inactive).

As for `CN1CCN(C(c2ccccc2)c2cc(Cl)c3cccnc3c2O)CC1` (stereo unspecified), the inhibition was 79.1%.

For the compound `Cc1ccnc(C(c2ccc3cccnc3c2O)N2CCN(C)CC2)c1` (stereo unspecified), the inhibition is 104%.

In the case of `CC1CCN(C(c2ccccn2)c2cc(Cl)c3cccnc3c2O)CC1` (stereo unspecified), the inhibition was 104%.

As for `Oc1c(C(c2ccccn2)N2CCNCC2)cc(Cl)c2cccnc12` (stereo unspecified), the inhibition was 83.5%.

As for `CCN1CCN(C(c2ccccn2)c2cc(Cl)c3cccnc3c2O)CC1` (stereo unspecified), the inhibition was 98.4%.

With `CN1CCN(C(c2cccnc2)c2cc(Cl)c3cccnc3c2O)CC1` (stereo unspecified), the inhibition is 40% (inactive).

For the origin of these results see PubChem BioAssay AID652218 (The Scripps Research Institute Molecular Screening Center, 2013).
